Reference: patent US10004701B2, “Methods and compositions for treating infection” (UNIVERSITY OF ROCHESTER, priority 2012, dated 2018)
Counter-ions that a name gives are not always drawn. Like-named read-outs stand apart in the source and are kept apart here.

Legend:
Test in all cases: AK assay 384-well format, Prestwick library screening
[1] = test system: A. baumannii strain 98-37-09; type: cell-based, Acinetobacter baumannii; conditions: 50 μM final drug concentration; for fold induction at 50 µM: Acinetobacter baumannii, 983709, 3 h; for AK-based Prestwick Library Screening Results: A. baumannii (increase in extracellular AK activity): 384-well
E. faecium = type: cell-based, Enterococcus faecium; conditions: 50 μM final drug concentration; for fold induction at 50 µM: Enterococcus faecium, 3 h; for AK-based Prestwick Library Screening Results: E. faecium (increase in extracellular AK activity): 384-well
P. aeruginosa = type: cell-based, Pseudomonas aeruginosa; conditions: 50 μM final drug concentration; for fold induction at 50 µM: Pseudomonas aeruginosa, 3 h; for AK-based Prestwick Library Screening Results: P. aeruginosa (increase in extracellular AK activity): 384-well
E. coli = type: cell-based, Escherichia coli; conditions: 50 μM final drug concentration; for fold induction at 50 µM: Escherichia coli, 3 h; for AK-based Prestwick Library Screening Results: E. coli (increase in extracellular AK activity): 384-well
[2] = test system: S. aureus strain USA300-0114; type: cell-based, Staphylococcus aureus; conditions: 50 μM final drug concentration; for fold induction at 50 µM: Staphylococcus aureus, USA300, 3 h; for AK-based Prestwick Library Screening Results: S. aureus (increase in extracellular AK activity): 384-well
K. pneumoniae = type: cell-based, Klebsiella pneumoniae; conditions: 50 μM final drug concentration; for fold induction at 50 µM: Klebsiella pneumoniae, 3 h; for AK-based Prestwick Library Screening Results: K. pneumoniae (increase in extracellular AK activity): 384-well
E. cloacae = type: cell-based, Enterobacter cloacae; conditions: 50 μM final drug concentration; for fold induction at 50 µM: Enterobacter cloacae, 3 h; for AK-based Prestwick Library Screening Results: E. cloacae (increase in extracellular AK activity): 384-well
[3] = cutoff for positive-scoring molecules 3-fold increase, read-out: AK-based Prestwick Library Screening Results, A. baumannii (fold increase in extracellular AK activity)
[4] = cutoff for positive-scoring molecules 3-fold increase, read-out: AK-based Prestwick Library Screening Results, E. faecium (fold increase in extracellular AK activity)
[5] = cutoff for positive-scoring molecules 3-fold increase, read-out: AK-based Prestwick Library Screening Results, P. aeruginosa (fold increase in extracellular AK activity)
[6] = cutoff for positive-scoring molecules 3-fold increase, read-out: AK-based Prestwick Library Screening Results, E. coli (fold increase in extracellular AK activity)
[7] = cutoff for positive-scoring molecules 3-fold increase, read-out: AK-based Prestwick Library Screening Results, S. aureus (fold increase in extracellular AK activity)
[8] = cutoff for positive-scoring molecules 3-fold increase, read-out: AK-based Prestwick Library Screening Results, K. pneumoniae (fold increase in extracellular AK activity)
[9] = cutoff for positive-scoring molecules 3-fold increase, read-out: AK-based Prestwick Library Screening Results, E. cloacae (fold increase in extracellular AK activity)
[10] = planktonic A. baumannii, […], read-out: AK-based Prestwick library screening result, A. baumannii (fold increase in extracellular AK activity)
[11] = planktonic E. faecium, […], read-out: AK-based Prestwick library screening result, E. faecium (fold increase in extracellular AK activity)
[12] = planktonic P. aeruginosa, […], read-out: AK-based Prestwick library screening result, P. aeruginosa (fold increase in extracellular AK activity)
[13] = planktonic E. coli, […], read-out: AK-based Prestwick library screening result, E. coli (fold increase in extracellular AK activity)
[14] = planktonic S. aureus, […], read-out: AK-based Prestwick library screening result, S. aureus (fold increase in extracellular AK activity)
[15] = planktonic K. pneumoniae, […], read-out: AK-based Prestwick library screening result, K. pneumoniae (fold increase in extracellular AK activity)
[16] = planktonic E. cloacae, […], read-out: AK-based Prestwick library screening result, E. cloacae (fold increase in extracellular AK activity)

## CC(=O)OCC(=O)NCCCOc1cccc(CN2CCCCC2)c1 [Roxatidine Acetate HCl]
[1]; planktonic A. baumannii, cutoff for positive-scoring molecules 3-fold increase, read-out: AK-based Prestwick Library Screening Results, A. baumannii (increase in extracellular AK activity)
  fold induction at 50 µM: 0.8
E. faecium; planktonic E. faecium, cutoff for positive-scoring molecules 3-fold increase, read-out: AK-based Prestwick Library Screening Results, E. faecium (increase in extracellular AK activity)
  fold induction at 50 µM: 1
P. aeruginosa; planktonic P. aeruginosa, cutoff for positive-scoring molecules 3-fold increase, read-out: AK-based Prestwick Library Screening Results, P. aeruginosa (increase in extracellular AK activity)
  fold induction at 50 µM: 0.7
E. coli; planktonic E. coli, cutoff for positive-scoring molecules 3-fold increase, read-out: AK-based Prestwick Library Screening Results, E. coli (increase in extracellular AK activity)
  fold induction at 50 µM: 0.8
[2]; planktonic S. aureus, cutoff for positive-scoring molecules 3-fold increase, read-out: AK-based Prestwick Library Screening Results, S. aureus (increase in extracellular AK activity)
  fold induction at 50 µM: 0.6
K. pneumoniae; planktonic K. pneumoniae, cutoff for positive-scoring molecules 3-fold increase, read-out: AK-based Prestwick Library Screening Results, K. pneumoniae (increase in extracellular AK activity)
  fold induction at 50 µM: 0.7
E. cloacae; planktonic E. cloacae, cutoff for positive-scoring molecules 3-fold increase, read-out: AK-based Prestwick Library Screening Results, E. cloacae (increase in extracellular AK activity)
  fold induction at 50 µM: 0.9

## CC[C@H]1OC(=O)[C@H](C)[C@@H](O[C@H]2C[C@@](C)(OC)[C@@H](O)[C@H](C)O2)[C@H](C)[C@@H](O[C@@H]2O[C@H](C)C[C@H](N(C)C)[C@H]2O)[C@](C)(O)C[C@@H](C)/C(=N\OCOCCOC)[C@H](C)[C@@H](O)[C@]1(C)O [Roxithromycin]
[1]; [3]
  fold induction at 50 µM: 1
E. faecium; [4]
  fold induction at 50 µM: 1.4
P. aeruginosa; [5]
  fold induction at 50 µM: 0.9
E. coli; [6]
  fold induction at 50 µM: 0.9
[2]; [7]
  fold induction at 50 µM: 2.8
K. pneumoniae; [8]
  fold induction at 50 µM: 1.1
E. cloacae; [9]
  fold induction at 50 µM: 1.5

## c1ccc2c(c1)CCCc1cc(NCCN3CCOCC3)nnc1-2 [SR-95639A]
[1]; planktonic A. baumannii, […]
  AK-based Prestwick Library Screening Results: A. baumannii (increase in extracellular AK activity): 0.5
E. faecium; planktonic E. faecium, […]
  AK-based Prestwick Library Screening Results: E. faecium (increase in extracellular AK activity): 0.8
P. aeruginosa; planktonic P. aeruginosa, […]
  AK-based Prestwick Library Screening Results: P. aeruginosa (increase in extracellular AK activity): 0.4
E. coli; planktonic E. coli, […]
  AK-based Prestwick Library Screening Results: E. coli (increase in extracellular AK activity): 0.5
[2]; planktonic S. aureus, […]
  AK-based Prestwick Library Screening Results: S. aureus (increase in extracellular AK activity): 0.4
K. pneumoniae; planktonic K. pneumoniae, […]
  AK-based Prestwick Library Screening Results: K. pneumoniae (increase in extracellular AK activity): 0.5
E. cloacae; planktonic E. cloacae, […]
  AK-based Prestwick Library Screening Results: E. cloacae (increase in extracellular AK activity): 0.4

## CC(C)(C)NCC(O)c1ccc(O)c(CO)c1 (stereo not drawn) [Salbutamol]
[1]; 384-well format, cutoff for positive-scoring molecules 3-fold increase, read-out: AK-based Prestwick Library Screening Results, A. baumannii (increase in extracellular AK activity)
  fold induction at 50 µM: 0.9
E. faecium; 384-well format, cutoff for positive-scoring molecules 3-fold increase, read-out: AK-based Prestwick Library Screening Results, E. faecium (increase in extracellular AK activity)
  fold induction at 50 µM: 1
P. aeruginosa; 384-well format, cutoff for positive-scoring molecules 3-fold increase, read-out: AK-based Prestwick Library Screening Results, P. aeruginosa (increase in extracellular AK activity)
  fold induction at 50 µM: 0.8
E. coli; 384-well format, cutoff for positive-scoring molecules 3-fold increase, read-out: AK-based Prestwick Library Screening Results, E. coli (increase in extracellular AK activity)
  fold induction at 50 µM: 0.9
[2]; 384-well format, cutoff for positive-scoring molecules 3-fold increase, read-out: AK-based Prestwick Library Screening Results, S. aureus (increase in extracellular AK activity)
  fold induction at 50 µM: 0.8
K. pneumoniae; 384-well format, cutoff for positive-scoring molecules 3-fold increase, read-out: AK-based Prestwick Library Screening Results, K. pneumoniae (increase in extracellular AK activity)
  fold induction at 50 µM: 0.7
E. cloacae; 384-well format, cutoff for positive-scoring molecules 3-fold increase, read-out: AK-based Prestwick Library Screening Results, E. cloacae (increase in extracellular AK activity)
  fold induction at 50 µM: 1.4

## OCc1cc(C(O)CNCCCCCCOCCCCc2ccccc2)ccc1O (stereo not drawn) [Salmeterol]
[1]; [3]
  fold induction at 50 µM: 1.5
E. faecium; [4]
  fold induction at 50 µM: 1
P. aeruginosa; [5]
  fold induction at 50 µM: 1.2
E. coli; [6]
  fold induction at 50 µM: 1.4
[2]; [7]
  fold induction at 50 µM: 1.9
K. pneumoniae; [8]
  fold induction at 50 µM: 1.1
E. cloacae; [9]
  fold induction at 50 µM: 1.5

## C[C@@H]1NCCc2cc(O)c(O)cc21 [Salsolinol hydrobromide]
[1]; planktonic, cutoff for positive 3-fold increase, read-out: AK-based Prestwick Library Screening Results, A. baumannii (fold increase in extracellular AK activity)
  fold induction at 50 µM: 1.2
E. faecium; planktonic, cutoff for positive 3-fold increase, read-out: AK-based Prestwick Library Screening Results, E. faecium (fold increase in extracellular AK activity)
  fold induction at 50 µM: 1
P. aeruginosa; planktonic, cutoff for positive 3-fold increase, read-out: AK-based Prestwick Library Screening Results, P. aeruginosa (fold increase in extracellular AK activity)
  fold induction at 50 µM: 1.1
E. coli; planktonic, cutoff for positive 3-fold increase, read-out: AK-based Prestwick Library Screening Results, E. coli (fold increase in extracellular AK activity)
  fold induction at 50 µM: 1.2
[2]; planktonic, cutoff for positive 3-fold increase, read-out: AK-based Prestwick Library Screening Results, S. aureus (fold increase in extracellular AK activity)
  fold induction at 50 µM: 1.1
K. pneumoniae; planktonic, cutoff for positive 3-fold increase, read-out: AK-based Prestwick Library Screening Results, K. pneumoniae (fold increase in extracellular AK activity)
  fold induction at 50 µM: 1.2
E. cloacae; planktonic, cutoff for positive 3-fold increase, read-out: AK-based Prestwick Library Screening Results, E. cloacae (fold increase in extracellular AK activity)
  fold induction at 50 µM: 1.5

## C[n+]1cc2c3c(ccc2c2ccc4cc5c(cc4c21)OCO5)OCO3 [Sanguinarine]
[1]; [10]
  fold induction at 50 µM: 0.7
E. faecium; [11]
  fold induction at 50 µM: 0.3
P. aeruginosa; [12]
  fold induction at 50 µM: 0.3
E. coli; [13]
  fold induction at 50 µM: 0.6
[2]; [14]
  fold induction at 50 µM: 0.1
K. pneumoniae; [15]
  fold induction at 50 µM: 0.2
E. cloacae; [16]
  fold induction at 50 µM: 0.9

## CC(C)(C)NC(=O)[C@@H]1C[C@@H]2CCCC[C@@H]2CN1C[C@@H](O)[C@H](Cc1ccccc1)NC(=O)[C@H](CC(N)=O)NC(=O)c1ccc2ccccc2n1 [Saquinavir mesylate]
[1]; [10]
  fold induction at 50 µM: 1.5
E. faecium; [11]
  fold induction at 50 µM: 1.2
P. aeruginosa; [12]
  fold induction at 50 µM: 1
E. coli; [13]
  fold induction at 50 µM: 1.3
[2]; [14]
  fold induction at 50 µM: 0.9
K. pneumoniae; [15]
  fold induction at 50 µM: 1.1
E. cloacae; [16]
  fold induction at 50 µM: 1.8

## Br.C[N+]1([O-])[C@@H]2CC(OC(=O)[C@H](CO)c3ccccc3)C[C@H]1[C@@H]1O[C@@H]12 (stereo partly drawn) [Scopolamin-N-oxide hydrobromide]
[1]; planktonic A. baumannii, […]
  AK-based Prestwick Library Screening Results: A. baumannii (increase in extracellular AK activity): 1.4
E. faecium; planktonic E. faecium, […]
  AK-based Prestwick Library Screening Results: E. faecium (increase in extracellular AK activity): 1.1
P. aeruginosa; planktonic P. aeruginosa, […]
  AK-based Prestwick Library Screening Results: P. aeruginosa (increase in extracellular AK activity): 1.3
E. coli; planktonic E. coli, […]
  AK-based Prestwick Library Screening Results: E. coli (increase in extracellular AK activity): 1.2
[2]; planktonic S. aureus, […]
  AK-based Prestwick Library Screening Results: S. aureus (increase in extracellular AK activity): 1.4
K. pneumoniae; planktonic K. pneumoniae, […]
  AK-based Prestwick Library Screening Results: K. pneumoniae (increase in extracellular AK activity): 1.2
E. cloacae; planktonic E. cloacae, […]
  AK-based Prestwick Library Screening Results: E. cloacae (increase in extracellular AK activity): 1.5
